Measurements published in the supplement of paper PMC10307832.

Key:
Assay in all cases: relative viability (nuclei count vs DMSO), 5 days (fraction); higher = more cells survive
[1] = compound: CC(C)=CC[C@@H](O)C1=CC(=O)c2c(O)ccc(O)c2C1=O [Shikonin] + COc1cccc2cc(-c3nc([C@H]4CC[C@H](C(=O)O)CC4)n4ncnc(N)c34)[nH]c12 [OSI-027] (partner 0.5 µM)
Method in brief: (§1)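 Lung cancer cell lines in 1536-well plates got either a single drug or a fixed anchor-drug dose together with five library-drug doses (not always all listed) in √10 steps, by pin tool, on the day after seeding. Nuclei were counted after 5 days, and relative viability is the treated-to-vehicle ratio of nuclei counts. Values are medians of duplicate plates.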

[2] = compound: CC(C)=CC[C@@H](O)C1=CC(=O)c2c(O)ccc(O)c2C1=O [Shikonin] + C[C@]1(O)C[C@@H](c2nc(-c3ccc4ccc(-c5ccccc5)nc4c3)c3c(N)nccn32)C1 [Linsitinib] (partner 1 µM)
Method in brief: as §1

[3] = compound: CC(C)=CC[C@@H](O)C1=CC(=O)c2c(O)ccc(O)c2C1=O [Shikonin] + CS(=O)(=O)N1CCN(Cc2cc3nc(-c4cccc5[nH]ncc45)nc(N4CCOCC4)c3s2)CC1 [Pictilisib] (partner 1 µM)
Method in brief: as §1

[4] = compound: CC(C)=CC[C@@H](O)C1=CC(=O)c2c(O)ccc(O)c2C1=O [Shikonin] + C[C@@H](Oc1cc(-c2cnn(C3CCNCC3)c2)cnc1N)c1c(Cl)ccc(F)c1Cl [Crizotinib] (partner 1 µM)
Method in brief: as §1

[5] = compound: CC(C)=CC[C@@H](O)C1=CC(=O)c2c(O)ccc(O)c2C1=O [Shikonin] + Cc1cc(Nc2cc(N3CCN(C)CC3)nc(Sc3ccc(NC(=O)C4CC4)cc3)n2)n[nH]1 [Tozasertib] (partner 0.1 µM)
Method in brief: as §1

| Cell Line | relative viability ([1]; first compound 0.01 µM) | relative viability ([1]; first compound 0.1 µM) | relative viability ([1]; first compound 0.3162 µM) | relative viability ([1]; first compound 1 µM) | relative viability ([2]; first compound 0.01 µM) | relative viability ([2]; first compound 0.1 µM) | relative viability ([2]; first compound 0.3162 µM) | relative viability ([2]; first compound 1 µM) | relative viability ([3]; first compound 0.01 µM) | relative viability ([3]; first compound 0.1 µM) | relative viability ([3]; first compound 0.3162 µM) | relative viability ([3]; first compound 1 µM) | relative viability ([4]; first compound 0.01 µM) | relative viability ([4]; first compound 0.1 µM) | relative viability ([4]; first compound 0.3162 µM) | relative viability ([4]; first compound 1 µM) | relative viability ([5]; first compound 0.01 µM) | relative viability ([5]; first compound 0.1 µM) | relative viability ([5]; first compound 0.3162 µM) | relative viability ([5]; first compound 1 µM) |
| --- | --- | --- | --- | --- | --- | --- | --- | --- | --- | --- | --- | --- | --- | --- | --- | --- | --- | --- | --- | --- |
| 201T | 0.795 | 0.994 | 0.715 | 0.976 | 1.01 | 1.04 | 1.08 | 1.03 | 0.621 | 0.754 | 0.669 | 0.796 | 1.01 | 1.08 | 1.04 | 1.08 | 0.99 | 1.14 | 0.968 | 0.935 |
| A549 | – | – | – | – | 0.59 | 0.485 | 0.728 | 0.637 | 0.746 | 0.569 | 0.644 | 0.488 | 0.748 | 0.932 | 0.872 | 0.705 | – | – | – | – |
| A-427 | 0.503 | 0.594 | 0.514 | 0.509 | 1.11 | 1.21 | 1.19 | 1.14 | 0.691 | 0.915 | 0.643 | 0.765 | 0.978 | 1.12 | 1.03 | 0.847 | 0.198 | 0.192 | 0.159 | 0.225 |
| ABC-1 | 0.61 | 0.533 | 0.391 | 0.265 | 0.968 | 0.754 | 0.689 | 0.647 | 0.718 | 0.776 | 0.538 | 0.407 | 1.72 | 1.15 | 1.13 | 0.531 | 0.141 | 0.196 | 0.188 | 0.187 |
| BEN | 0.281 | 0.311 | 0.298 | 0.324 | 1.07 | 0.962 | 1.12 | 1.07 | 0.642 | 0.596 | 0.682 | 0.612 | 0.952 | 0.974 | 0.975 | 0.998 | 0.508 | 0.507 | 0.51 | 0.52 |
| CAL-12T | 0.658 | 0.936 | 0.546 | 0.488 | 0.754 | 0.815 | 0.715 | 0.767 | 0.368 | 0.409 | 0.35 | 0.414 | 0.941 | 0.659 | 0.627 | 0.589 | 0.322 | 0.294 | 0.325 | 0.432 |
| COR-L23 | 0.854 | 0.778 | 0.732 | 0.729 | 0.99 | 0.865 | 0.917 | 0.797 | 1.09 | 0.831 | 0.889 | 0.741 | 0.735 | 0.786 | 0.601 | 0.689 | 0.202 | 0.197 | 0.171 | 0.149 |
| COR-L 105 | 0.685 | 0.723 | 0.613 | 0.611 | 1.1 | 0.971 | 0.845 | 0.655 | 0.428 | 0.358 | 0.438 | 0.336 | 1.06 | 0.721 | 0.763 | 0.692 | 0.254 | 0.318 | 0.327 | 0.366 |
| Calu-6 | – | – | – | – | 0.984 | 1.08 | 0.984 | 0.972 | 1.15 | 1.03 | 0.921 | 0.756 | 1.02 | 0.854 | 0.912 | 0.75 | – | – | – | – |
| ChaGo-K-1 | 0.598 | 0.654 | 0.665 | 0.662 | – | – | – | – | 0.677 | 1.16 | 0.699 | 1.27 | 1.07 | 1.19 | 1.11 | 1.21 | 0.212 | 0.232 | 0.236 | 0.248 |
| EBC-1 | – | – | – | – | 0.984 | 0.857 | 0.727 | 1.02 | 0.331 | 0.353 | 0.369 | 0.34 | 0.165 | 0.224 | 0.216 | 0.201 | – | – | – | – |
| EKVX | 0.617 | 0.668 | 0.917 | 0.734 | 1.04 | 0.962 | 1.29 | 1.09 | 0.46 | 0.451 | 0.496 | 0.448 | 1.05 | 1.2 | 0.996 | 1.07 | 0.387 | 0.327 | 0.402 | 0.414 |
| EMC-BAC-2 | 0.38 | 0.399 | 0.39 | 0.386 | 0.8 | 0.836 | 0.839 | 0.855 | 0.541 | 0.536 | 0.593 | 0.654 | 0.771 | 0.715 | 0.815 | 0.866 | 0.279 | 0.283 | 0.323 | 0.267 |
| EPLC-272H | 0.271 | 0.274 | 0.279 | 0.259 | 1.18 | 1.32 | 1.2 | 1.17 | 0.299 | 0.383 | 0.292 | 0.36 | 1.03 | 0.901 | 0.953 | 0.865 | 0.226 | 0.215 | 0.249 | 0.191 |
| H3255 | 0.591 | 0.596 | 0.622 | 0.475 | 0.999 | 1.05 | 1.06 | 1.08 | 0.487 | 0.477 | 0.495 | 0.427 | 0.945 | 1 | 0.958 | 0.915 | 0.804 | 0.535 | 0.64 | 0.797 |
| HARA | 0.431 | 0.667 | 0.521 | 0.521 | 1.1 | 0.925 | 1.01 | 0.925 | 0.226 | 0.527 | 0.477 | 0.43 | 1.18 | 1.19 | 1.11 | 1.21 | 0.0977 | 0.0981 | 0.115 | 0.113 |
| HCC-15 | 0.719 | 0.705 | 0.692 | 0.744 | 0.99 | 0.906 | 0.874 | 0.935 | 0.699 | 0.789 | 0.732 | 0.832 | 0.89 | 0.916 | 0.913 | 0.928 | 0.459 | 0.445 | 0.33 | 0.465 |
